Laboratory results published in US9688653B2, “Ethoxyphenyl thienyl compounds and methods for the treatment of bacterial infections” (Duke University, priority 2013, dated 2017).
Several values for one entry are separate records, joined by “and”; a condition that tells them apart may be missing. Equal entries are not always repeated. Where two headings read alike, the source gives them in different places.

How the values were obtained:
[1] = biological target: norepinephrine transporter (Homo sapiens, UniProt P23975); assay: LeadProfilingScreen, single target; assay type: binding; settings: Transporter, Norepinephrine (NET), hum, 10 μM
Description: Evaluation of off-target effects. Off target effects of lead molecules of interest were evaluated using the LeadProfilingScreen commercial assay at Eurofins Panlabs (Bothell, Wash.). Reference standards were run as an integral part of each assay to ensure the validity of the results obtained. Assay results are presented as the percent inhibition of specific binding or activity (for n=2 replicates) for the probe compound tested at a concentration of 10 μM. Details regarding the individual assays and methods are provided in Supplementary Information File 51.
DU003 & DU011 are biologically selective. DU003 and DU011 were submitted to the Eurofins Panlabs LeadProfilingScreen to assess off-target pharmacology 1421. […] In review of PubChem data, DU011 (CID23602075) is reported to have shown activity in only 21 of 467 (4.5%, as of Sep. 5, 2013) bioassays in which it was tested (assays unrelated to the current project). Per PubChem, DU003 (CID18109210) is reported to have shown activity in only 5 of 427 (1.2%, as of Sep. 5, 2013) bioassays in which it was tested (assays unrelated to the current project).

panel of 68 receptors = settings: for Inhibition across off-target panel: duplicate, upper bound over all targets
[2] = Plasma protein binding, human; assay type: in vitro ADME
[3] = Solubility in PBS and in assay media; assay type: physicochemical
Description: Solubility was measured in phosphate buffered saline (PBS) at room temperature (23° C.). PBS by definition is 137 mM NaCl, 2.7 mM KCl, 10 mM sodium phosphate dibasic, 2 mM potassium phosphate monobasic and a pH of 7.4 (34). […] Solubility was also assessed in primary assay media (Luria-Bertani Broth). […] The solubility in PBS buffer is good, and only slightly less than in assay media, and, in any case, the solubility for the probe is well above its activity in the K1 and T7 assays.

K1 capsule of UTI89 = assay: Secondary assay 3: orcinol assay for released K1 capsule polysaccharide; assay type: cell-based, Escherichia coli
Description: E. Secondary Assay 3: Orcinol Secondary Screening for Inhibitors of Bacterial Capsule Biogenesis.
Purpose: This assay was performed only on the probe candidate. […] The biochemical determination of cell-surface associated capsule was performed using UTI89 or the Delta Region I and Delta Region II capsule mutant bacterial strains.
Purpose: This assay was performed only on the probe candidate. […] The biochemical determination of cell-surface associated capsule was performed using UTI89 or the delta Region I and Region II capsule mutant bacterial strains.
Assay Description: The biochemical measurement of cell-surface associated capsule was performed. UTI89 or capsule mutants were grown in culture tubes with and without the test compound (50 μM). The cultures were centrifuged, and the cell pellets were washed in PBS and resuspended in Tris buffer, pH5. […] Released polysaccharide was harvested by separation from whole bacteria by centrifugation followed by deproteination with phenol/chloroform and precipitation with ethanol. The precipitated material was subjected to acid hydrolysis (pH 2 at 80° C. for 1 hr) and incubated with orcinol, which reacts with periodic intermediates to produce a violet color quantified at OD 570 (3) Inhibitors reducing or abrogating surface encapsulation yielded low orcinol levels similar to the capsule export and synthesis mutants (Region I and II). The positive control drug C7 (100 μM final well concentration) was used in this screen.
Endpoint Read: The samples were read at ambient temperature from the bottom for absorbance at A570 in a BioTek Quantplate reader and the degree of orcinol-reactive material was determined based on the absorbance compared to a wild-type encapsulated strain (UTI89) and a standard curve using purified sialic acid.
Orcinol assay for released capsule material. Orcinol reactivity was used as a biochemical confirmation of altered extracellular capsule after compound treatment. UTI89 or an isogenic capsule mutant was grown in 100 μM of test compound or 1% DMSO. The assay was performed as previously described. The molecule C7 (100 μM final concentration) was used as a positive control. The assay was performed 3 times with replicate samples.

[4] = Hepatic microsome stability, human; assay type: in vitro ADME; settings: 37° C.
[5] = system: E. coli strains 536 (K15 serotype), CFT073 (K2 serotype), DS17 (K5 serotype), UTI89 (K1 serotype); assay: Visualization of isolated capsule by Alcian blue staining; assay type: cell-based, Escherichia coli; settings: strains 536, CFT073, DS17, UTI89; DU011 200 μM
Description: Visualization of capsule using Alcian blue staining. Overnight cultures of clinical E. coli strains were diluted 1:100 in the presence of 1% DMSO or 100 μM DU011. Cultures were grown for ˜6 hrs (OD600=1.2) at 37° C. Samples were centrifuged at 13,200 RPM for 5 min. The medium was removed and the cells were resuspended in 500 μL of Tris-Acetate (pH 5) and shaken for 1 hr at 37° C. Samples were re-centrifuged, and the supernatant was concentrated ˜100 fold in Amicon 3K microconcentrators.
A major consideration was whether the inhibitors of K1 encapsulation were also able to inhibit the production of other important E. coli Group 2 capsule types. […] Capsular material was isolated from strains 536 (K15 serotype), CFT073 (K2 serotype) and DS17 (K5 serotype), and UTI89 (K1 serotype) in the presence and absence of capsule inhibitors. Capsule was isolated from the same amount of bacteria after growth in vehicle or with inhibitor DU011 (200 μM). Isolated material was separated on a polyacrylamide gel and stained with the cationic dye alcian blue.

norepinephrine transporter, sequence (P23975 whole entry): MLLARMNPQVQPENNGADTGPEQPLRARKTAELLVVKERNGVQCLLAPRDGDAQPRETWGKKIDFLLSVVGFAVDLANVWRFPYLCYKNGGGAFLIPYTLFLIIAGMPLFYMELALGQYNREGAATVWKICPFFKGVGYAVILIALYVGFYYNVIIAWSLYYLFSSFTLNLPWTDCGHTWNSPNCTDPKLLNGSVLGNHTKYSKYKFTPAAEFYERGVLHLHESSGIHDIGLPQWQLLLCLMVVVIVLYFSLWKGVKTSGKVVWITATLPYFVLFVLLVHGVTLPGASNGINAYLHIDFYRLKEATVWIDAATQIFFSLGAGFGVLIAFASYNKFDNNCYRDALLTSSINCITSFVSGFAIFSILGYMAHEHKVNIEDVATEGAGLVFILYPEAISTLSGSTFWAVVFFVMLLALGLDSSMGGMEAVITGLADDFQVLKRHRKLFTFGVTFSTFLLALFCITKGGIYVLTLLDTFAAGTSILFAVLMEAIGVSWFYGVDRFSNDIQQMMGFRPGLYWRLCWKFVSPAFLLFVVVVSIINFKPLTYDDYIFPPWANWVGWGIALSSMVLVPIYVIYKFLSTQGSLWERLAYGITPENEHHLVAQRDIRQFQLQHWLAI

Structure (SMILES): CCOc1ccc(-c2cc(NC(=O)c3c(F)cccc3F)c(C(=O)O)s2)cc1 [KUC107784N-02]
- % Inh. [1]: 13%
- % Inh. (panel of 68 receptors; 10 µM): 6%
- % Inh. (panel of 68 receptors; Calcium Channel L-Type, Benzothiazepine, rat, 10 μM): 2%
- % Inh. (panel of 68 receptors; Calcium Channel L-Type, Dihydropyridine, rat, 10 μM): 32%
- % Inh. (panel of 68 receptors; Dopamine D2S, hum, 10 μM): 4%
- % Inh. (panel of 68 receptors; Dopamine D42, hum, 10 μM): 7%
- % Inh. (panel of 68 receptors; GABAA, Flunitrazepam, Central, rat, 10 μM): 16%
- % Inh. (panel of 68 receptors; GABAA, Muscimol, Central, rat, 10 μM): 9%
- % Inh. (panel of 68 receptors; Glutamate, Kainate, rat, 10 μM): 11%
- % Inh. (panel of 68 receptors; Glutamate, NMDA, Agonism, rat, 10 μM): 9%
- % Inh. (panel of 68 receptors; Glutamate, NMDA, Glycine, rat, 10 μM): −1%
- % Inh. (panel of 68 receptors; Glutamate, NMDA, Phencyclidine, rat, 10 μM): 6%
- % Inh. (panel of 68 receptors; Imidazoline I2, Central, rat, 10 μM): −1%
- % Inh. (panel of 68 receptors; Nicotinic Acetylcholine, hum, 10 μM): 13%
- % Inh. (panel of 68 receptors; Phorbol Ester, mouse, 10 μM): −1%
- % Inh. (panel of 68 receptors; Potassium Channel [KATP], ham, 10 μM): 9%
- % Inh. (panel of 68 receptors; Purinergic P2X, rabbit, 10 μM): −2%
- % Inh. (panel of 68 receptors; Purinergic P2Y, rat, 10 μM): 8%
- % Inh. (panel of 68 receptors; Rolipram, rat, 10 μM): 9%
- % Inh. (panel of 68 receptors; Thyroid Hormone, rat, 10 μM): −3%
- % Inh. (panel of 68 receptors; Transporter, GABA, rat, 10 μM): 10%

Structure (SMILES): CCOc1ccc(-c2cc(NC(=O)c3c(F)cccc3F)c(C(=O)O)s2)cc1 [ML317, 3-(2,6-difluorobenzamido)-5-(4-ethoxyphenyl)thiophene-2-carboxylic acid]
- Plasma Protein Binding (% Bound) ([2]; 1 μM): 99.68 % Bound
- Plasma Protein Binding (% Bound) ([2]; 10 μM): 99.85 % Bound
- solubility ([3]; Luria-Bertani broth (primary assay media), plasma or biological fluid, Luria-Bertani broth, read-out: Assay Media Solubility): 68 µg/mL and 169 µM
- solubility ([3]; phosphate buffered saline (PBS), 23 °C, pH 7.4, aqueous buffer, 1x PBS, pH 7.4, room temperature, read-out: Aqueous Solubility): 92.6 µg/mL and 230 µM
- Inhibition across off-target panel (panel of 68 receptors; 10 μM): < 50%
- Inhibition across off-target panel (panel of 68 receptors; 10 μM, listed as DU011, 10 µM): < 32%
- Bacterial capsule-dependent orcinol stain, % of the control sample (K1 capsule of UTI89): 21%
- Reduction of orcinol-reactive polysaccharides on surface of bacteria (K1 capsule of UTI89; 100 μM, K1 strain UTI89): ~80%
- Orcinol assay, % of control value (K1 capsule of UTI89; synthesized sample, SID 126497311): Orcinol assay 21%
- Hepatic Microsome Stability, % remaining at 1 hr [4]: 89.6 % remaining
- Capsular material, Alcian blue stained gel [5]: capsule was reduced in each strain
